Reference: patent US20240358693A1, “METHODS OF TREATING PAIN” (Aisa Pharma, Inc., priority 2023, published 2024)

Tested on: participants with SSc-RP
Experiment: Scleroderma Health Assessment Questionnaire (SHAQ): disability indices and visual analog scales
Format: in vivo, human
Text: The standard, validated, patient reported outcome measures tool for SSc patients, the Scleroderma Health Assessment Questionnaire (SHAQ), will be used to assess the participant qualify of life. Details are attached in the Appendix. The participant quality of life will be scored, and a disability index calculated for each questionnaire completed by the patient at Screening and each in-clinic visit. The absolute change in participant quality of life from baseline to the end of each dosing period will be calculated similar to frequency data as before.
The SHAQ includes a Raynaud's VAS, which will be reported at screening and each in-clinic visit. The absolute change in Raynaud-VAS, assessed by the participants response to the SHAQ question ‘In the past 7 days, how much have your Raynaud's interfered with your daily activities?’ at baseline and the end of each dosing period will be calculated similar to frequency data as before.
The SHAQ is used to calculate a Disability Index to assess the participant qualify of life. The eight categories assessed by the Disability Index are 1) dressing and grooming, 2) arising, 3) eating, 4) walking, 5) hygiene, 6) reach, 7) grip, and 8) common daily activities. For each of these categories, patients report the amount of difficulty they have in performing two or three specific activities.
There are four possible responses for the Disability Index questions: • Without any difficulty=0 • With some difficulty=1 • With much difficulty=2 • Unable to do=3. • The highest score reported by the patient for any component question of the eight categories determines the score for that category. • If a component question is left blank or the response is too ambiguous to assign a score, then the score for that category is determined by the remaining completed question(s). • If all component questions are blank or if more than one answer is given, then follow up with the respondent is required. • If the respondent's mark is between the response columns, then move it to the closest one. If it's directly between the two, move it to the higher one.
Each of the disability items on the SHAQ has a companion aids/devices variable that is used to record what type(s) of assistance, if any, the participant uses for his/her usual activities. These variables (see below) are coded as follows: • 0=No assistance is needed. • 1=A special device is used by the patient in his/her usual activities. • 2=The patient usually needs help from another person. • 3=The patient usually needs BOTH a special device AND help from another person.
The scoring variables and scoring rules permit the computation of two disability indices, the Standard Disability Index and the Alternative Disability Index.
This question results in a new set of category scores that are computed by adjusting the score for each category, if necessary, based on the patient's use of an aid or device or assistance for that category. If either devices and/or help from another person are checked for a category, the score is set to “2”, unless the score is already “3” (i.e., scores of “0” or “1” are increased to “2”). For example, if the highest score for the dressing category is “1”, and the patient says they use a device for dressing, the computed category score would be “2”. The sum of the computed categories scores is then calculated and divided by the number of categories answered. This gives a score in the 0 to 3 range.
The aid and device variables are not used to calculate the alternative disability index; it is calculated by adding the scores for each of the categories and dividing by the number of categories answered. This gives a score in the 0 to 3 range.
The standard, validated, patient reported outcome measures tool for SSc patients, the SHAQ, was collected at the time points specified in the study schedules (FIG. 2 and FIGS. 4A and 4B) to assess the participant's quality of life. The SHAQ included a Raynaud's VAS that will also be reported separately.

[1] = Cilnidipine 10 mg, Day 12, PP Population Part A, SSc patients
[2] = Cilnidipine 10 mg, Day 12, PP Population, Part A
[3] = Cilnidipine 10 mg, PP Population Part A, SSc patients
[4] = Cilnidipine 20 mg (N = 3), Modified ITT, Part A
[5] = Cilnidipine 20 mg (N = 3), patients with diagnosis of SSc, sensitivity analysis, Modified ITT, Part A

SMILES: COCCOC(=O)C1=C(C)NC(C)=C(C(=O)OC/C=C/c2ccccc2)C1c1cccc([N+](=O)[O-])c1 (stereo not shown) [Cilnidipine, cilnidipine]
- SHAQ Visual Analogue Scale - Finger Ulcers, Change from Baseline, Mean [1]: −0.425
- SHAQ Visual Analogue Scale - Finger Ulcers, Change from Baseline, Median [1]: −0.350
- SHAQ Visual Analogue Scale - Finger Ulcers, Percent Change from Baseline, Mean [1]: −69.44%
- SHAQ Visual Analogue Scale - Finger Ulcers, Percent Change from Baseline, Median [1]: −69.44%
- SHAQ Visual Analogue Scale - Intestinal Problems, Change from Baseline, Mean [1]: −1.875
- SHAQ Visual Analogue Scale - Intestinal Problems, Change from Baseline, Median [1]: −1.550
- SHAQ Visual Analogue Scale - Intestinal Problems, Percent Change from Baseline, Mean [1]: −77.37%
- SHAQ Visual Analogue Scale - Intestinal Problems, Percent Change from Baseline, Median [1]: −88.00%
- SHAQ Visual Analogue Scale - Overall Disease Severity, Change from Baseline, Mean [1]: −0.900
- SHAQ Visual Analogue Scale - Overall Disease Severity, Change from Baseline, Median [1]: −0.950
- SHAQ Visual Analogue Scale - Overall Disease Severity, Percent Change from Baseline, Mean [1]: −56.96%
- SHAQ Visual Analogue Scale - Overall Disease Severity, Percent Change from Baseline, Median [1]: −44.12%
- SHAQ Visual Analogue Scale - Pain, Change from Baseline, Mean [1]: −0.100
- SHAQ Visual Analogue Scale - Pain, Change from Baseline, Median [1]: 0.000
- SHAQ Visual Analogue Scale - Pain, Percent Change from Baseline, Mean [1]: −9.88%
- SHAQ Visual Analogue Scale - Pain, Percent Change from Baseline, Median [1]: 0.00%
- SHAQ Visual Analogue Scale - Raynaud's, Change from Baseline, Mean [1]: 0.325
- SHAQ Visual Analogue Scale - Raynaud's, Change from Baseline, Median [1]: 0.350
- SHAQ Visual Analogue Scale - Raynaud's, Percent Change from Baseline, Mean [1]: 11.36%
- SHAQ Visual Analogue Scale - Raynaud's, Percent Change from Baseline, Median [1]: −2.27%
- SHAQ Alternative Disability Index: Change from Baseline, Mean [2]: 0.063
- SHAQ Alternative Disability Index: Change from Baseline, Median [2]: 0.000
- SHAQ Alternative Disability Index: In-Clinic Visit (Day 12), Mean [2]: 0.563
- SHAQ Alternative Disability Index: In-Clinic Visit (Day 12), Median [2]: 0.500
- SHAQ Alternative Disability Index: Percent Change from Baseline, Mean [2]: 15.87%
- SHAQ Alternative Disability Index: Percent Change from Baseline, Median [2]: 15.87%
- SHAQ Standard Disability Index: Change from Baseline, Mean [2]: 0.000
- SHAQ Standard Disability Index: Change from Baseline, Median [2]: 0.000
- SHAQ Standard Disability Index: In-Clinic Visit (Day 12), Mean [2]: 0.656
- SHAQ Standard Disability Index: In-Clinic Visit (Day 12), Median [2]: 0.563
- SHAQ Standard Disability Index: Percent Change from Baseline, Mean [2]: 0.00%
- SHAQ Standard Disability Index: Percent Change from Baseline, Median [2]: 0.00%
- SHAQ Visual Analogue Scale - Pain: Change from Baseline, Mean [2]: −0.100
- SHAQ Visual Analogue Scale - Pain: Change from Baseline, Median [2]: 0.000
- SHAQ Visual Analogue Scale - Pain: In-Clinic Visit (Day 12), Mean [2]: 1.875
- SHAQ Visual Analogue Scale - Pain: In-Clinic Visit (Day 12), Median [2]: 1.950
- SHAQ Visual Analogue Scale - Pain: Percent Change from Baseline, Mean [2]: −9.88%
- SHAQ Visual Analogue Scale - Pain: Percent Change from Baseline, Median [2]: 0.00%
- SHAQ Visual Analogue Scale - Breathing Problems, In-Clinic Visit (Day 12), Mean [3]: 1.575
- SHAQ Visual Analogue Scale - Breathing Problems, In-Clinic Visit (Day 12), Median [3]: 0.000
- SHAQ Visual Analogue Scale - Finger Ulcers, In-Clinic Visit (Day 12), Mean [3]: 0.275
- SHAQ Visual Analogue Scale - Finger Ulcers, In-Clinic Visit (Day 12), Median [3]: 0.000
- SHAQ Visual Analogue Scale - Intestinal Problems, In-Clinic Visit (Day 12), Mean [3]: 1.100
- SHAQ Visual Analogue Scale - Intestinal Problems, In-Clinic Visit (Day 12), Median [3]: 0.300
- SHAQ Visual Analogue Scale - Overall Disease Severity, In-Clinic Visit (Day 12), Mean [3]: 1.825
- SHAQ Visual Analogue Scale - Overall Disease Severity, In-Clinic Visit (Day 12), Median [3]: 1.050
- SHAQ Visual Analogue Scale - Pain, In-Clinic Visit (Day 12), Mean [3]: 1.875
- SHAQ Visual Analogue Scale - Pain, In-Clinic Visit (Day 12), Median [3]: 1.950
- SHAQ Visual Analogue Scale - Raynaud's, In-Clinic Visit (Day 12), Mean [3]: 1.925
- SHAQ Visual Analogue Scale - Raynaud's, In-Clinic Visit (Day 12), Median [3]: 1.700
- SHAQ Overall Severity: Baseline, Mean [4]: 2.667
- SHAQ Overall Severity: Baseline, Median [4]: 2.900
- SHAQ Overall Severity: Change from Baseline, Mean [4]: −1.633,
- SHAQ Overall Severity: Change from Baseline, Median [4]: −1.600
- SHAQ Overall Severity: Day 12, Mean [4]: 1.033
- SHAQ Overall Severity: Day 12, Median [4]: 1.200
- SHAQ Overall Severity: Percent Change from Baseline, Mean [4]: −62.64%
- SHAQ Overall Severity: Percent Change from Baseline, Median [4]: −60.00%
- SHAQ Standard Disability Index: Baseline, Mean [5]: 0.250
- SHAQ Standard Disability Index: Baseline, Median [5]: 0.375
- SHAQ Standard Disability Index: Change from Baseline, Mean [5]: −0.125
